Assay type in all cases: in vivo
One experiment relates to Culex pipiens pallens. The experiment in a line: Test Example 5: larvae in treated water, Culex pipiens pallens. The following applies: 24 h, read-out: rate of dead pests. How it is done:
The formulation obtained according to Formulation Example 5 using the compound of the present invention (1), (2), (3), (4), (5), (6), (7), (8), (9), (10), (11), (12), (13), (14), (15), (16), (17), (18), (19), (20), (21), (22), (23), (25), (27), (28), (29), […], (31), (32), (33), (34), (35), (36), (37), (38), (39), (41), (44), (45), (46), (47) and (48) respectively, was diluted with water so that the active ingredient concentration came to 500 ppm to prepare a pesticidal solution for test.
0.7 ml of above pesticidal solution for test was added to 100 ml of ion exchanged water (active ingredient concentration: 3.5 ppm). Twenty last-instar larvae of Culex pipiens pallens were set free in the solution. After one day, the number of surviving and dead Culex pipiens pallens was examined and the rate of dead pests was calculated.

The test system of the next experiment is Musca domestica. The experiment in a line: Test Example 3: treated filter paper with sucrose bait, Musca domestica. As to conditions: read-out: rate of dead pests. As to the method:
The formulation obtained according to Formulation Example 5 using the compound of the present invention (2), (3), (4), (6), (7), (8), (11), (12), (13), (15), (16), (19), (20), (21), (22), (28), (29), (30), (31), (32), (33), (34), (36), (37), (38) and (39) respectively, was diluted with water so that the active ingredient concentration came to 500 ppm to prepare a pesticidal solution for test.
On the bottom of a polyethylene cup having a diameter of 5.5 cm, a filter paper having the same diameter was laid, and 0.7 ml of the above pesticidal solution for test was added dropwise on the filter paper, followed by putting 30 mg of sucrose on it uniformly as a bait. Ten female Musca domestica imagoes were set free in the polyethylene cup and covered it with a lid. After 24 hours, the number of surviving and dead Musca domestica was examined and the rate of dead pests was calculated.

For the next experiment, the system named is Blattella germanica. The experiment can be described thus: Test Example 4: treated filter paper with sucrose bait, Blattella germanica. The following applies: 144 h, read-out: rate of dead pests. How it is done:
The formulation obtained according to Formulation Example 5 using the compound of the present invention (2), (3), (4), (6), (7), (8), (9), (11), (12), (13), (15), (16), (18), (19), (20), (21), (22), (27), (28), (29), (30), (31), (32), (33), (34), (35), (36), (37), (38), (43) and […] respectively, was diluted with water so that the active ingredient concentration came to 500 ppm to prepare a pesticidal solution for test.
On the bottom of a polyethylene cup having a diameter of 5.5 cm, a filter paper having the same diameter was laid, and 0.7 ml of the above pesticidal solution for test was added dropwise on the filter paper, followed by putting 30 mg of sucrose on it uniformly as a bait. Two male Blattella germanica imagoes were set free in the polyethylene cup and covered it with a lid. After 6 days, the number of surviving and dead Blattella germanica was examined and the rate of dead pests was calculated.

Where [1] appears, read: active ingredient concentration 3.5 ppm in water, twenty last-instar larvae of Culex pipiens pallens, after one day.
Setting [2] is: 500 ppm, 0.7 ml on filter paper, ten female Musca domestica imagoes, after 24 hours.
[3] abbreviates: 500 ppm, 0.7 ml on filter paper, two male Blattella germanica imagoes, after 6 days.

Each structure is given as a SMILES string. Where two headings read alike, the source gives them in different places. Where only a bound is given, the exact number is not on record here.

`N#CC(C#N)(CCC(F)(F)F)Cn1cccn1` [compound of the present invention (1), (1H-pyrazole-1-yl methyl) (3,3,3-trifluoropropyl) malononitrile]: in the experiment with Culex pipiens pallens (setting [1]), the pest or weed control at 3.5 ppm was no less than 95%.

Turning to `CC(C)c1ccn(CC(C#N)(C#N)CCC(F)(F)F)n1` [compound of the present invention (2), [(3-i-propyl-1H-pyrazole-1-yl)methyl](3,3,3-trifluoropropyl) malononitrile], the pest or weed control at 500 ppm was no less than 90% in the experiment on Musca domestica (setting [2]) and 100% in the experiment with Blattella germanica (setting [3]). Besides, the pest or weed control at 3.5 ppm in the experiment on Culex pipiens pallens (setting [1]) is no less than 95%.

On to `CC(C)(C)c1ccn(CC(C#N)(C#N)CCC(F)(F)F)n1` [compound of the present invention (3), [(3-t-butyl-1H-pyrazole-1-yl)methyl](3,3,3-trifluoropropyl) malononitrile], for which the values for the pest or weed control at 500 ppm with Musca domestica (setting [2]) and in the experiment on Blattella germanica (setting [3]) were no less than 90% and 100%, respectively. The pest or weed control at 3.5 ppm in the experiment on Culex pipiens pallens (setting [1]) was no less than 95%.

As to `C=CCC(C#N)(C#N)Cn1ccc(C(C)(C)C)n1` [compound of the present invention (4), allyl [(3-t-butyl-1H-pyrazole-1-yl)methyl]malononitrile], the pest or weed control at 500 ppm was no less than 90% in the experiment on Musca domestica (setting [2]) and 100% with Blattella germanica (setting [3]). In addition, the pest or weed control at 3.5 ppm in the experiment with Culex pipiens pallens (setting [1]) was no less than 95%.

For the molecule `CC1(C)CCc2cn(CC(C#N)(C#N)CCC(F)(F)F)nc21` [compound of the present invention (5), [(6,6-dimethyl-5,6-dihydro-cyclopenta[c]pyrazole-2(4H)-yl)methyl](3,3,3-trifluoropropyl) malononitrile], in the experiment with Culex pipiens pallens (setting [1]), the pest or weed control at 3.5 ppm was no less than 95%.

Consider `N#CC(C#N)(CCC(F)(F)F)Cn1ccc(C(F)(F)F)n1` [compound of the present invention (6), {[3-(trifluoromethyl)-1H-pyrazole-1-yl]methyl}(3,3,3-trifluoropropyl) malononitrile], for which the pest or weed control at 500 ppm was no less than 90% in the experiment with Musca domestica (setting [2]) and 100% in the experiment with Blattella germanica (setting [3]). In addition, in the experiment on Culex pipiens pallens (setting [1]), the pest or weed control at 3.5 ppm was no less than 95%.

Take `C=CCC(C#N)(C#N)Cn1ccc(C(F)(F)F)n1` [compound of the present invention (7), allyl {[3-(trifluoromethyl)-1H-pyrazole-1-yl]methyl}malononitrile]: the pest or weed control at 500 ppm was no less than 90% in the experiment on Musca domestica (setting [2]) and 100% with Blattella germanica (setting [3]). The pest or weed control at 3.5 ppm with Culex pipiens pallens (setting [1]) is no less than 95%.

For the molecule `N#CC(C#N)(CCC(F)(F)F)Cn1ccc(C=O)n1` [compound of the present invention (8), [(3-formyl-1H-pyrazole-1-yl)methyl](3,3,3-trifluoropropyl) malononitrile], the pest or weed control at 500 ppm in the experiment on Musca domestica (Musca domestica, 24 h) is no less than 90%; in the experiment on Blattella germanica (Blattella germanica), 100%. Further, the pest or weed control at 3.5 ppm in the experiment with Culex pipiens pallens (Culex pipiens) was no less than 95%.

With `N#Cc1ccn(CC(C#N)(C#N)CCC(F)(F)F)n1` [compound of the present invention (9), [(3-cyano-1H-pyrazole-1-yl)methyl](3,3,3-trifluoropropyl) malononitrile], in the experiment on Blattella germanica (setting [3]), the pest or weed control at 500 ppm amounted to 100%. For the same molecule, the pest or weed control at 3.5 ppm in the experiment with Culex pipiens pallens (setting [1]) was no less than 95%.

Regarding `N#CC(C#N)(CCC(F)(F)F)Cn1ccc(-c2ccccc2)n1` [compound of the present invention (10), [(3-phenyl-1H-pyrazole-1-yl)methyl](3,3,3-trifluoropropyl)malononitrile], in the experiment on Culex pipiens pallens (setting [1]), the pest or weed control at 3.5 ppm is no less than 95%.

On to `C=CCC(C#N)(C#N)Cn1cc(Br)c(C(C)(C)C)n1` [compound of the present invention (14), allyl [(4-bromo-3-t-butyl-1H-pyrazole-1-yl)methyl]malononitrile], for which the pest or weed control at 3.5 ppm in the experiment on Culex pipiens pallens (setting [1]) was no less than 95%.

`Cc1cc(C)n(CC(C#N)(C#N)CCC(F)(F)F)n1` [compound of the present invention (17)]: in the experiment with Culex pipiens pallens (setting [1]), the pest or weed control at 3.5 ppm was no less than 95%.

In the case of `Cc1cnn(CC(C#N)(C#N)CCC(F)(F)F)c1` [compound of the present invention (18)], the pest or weed control at 500 ppm in the experiment on Blattella germanica (setting [3]) was found to be 100%. The pest or weed control at 3.5 ppm in the experiment on Culex pipiens pallens (setting [1]) was no less than 95%.

`COC(=O)c1cnn(CC(C#N)(C#N)CCC(F)(F)F)c1` [compound of the present invention (23), [{4-(methoxycarbonyl)-1H-pyrazole-1-yl}methyl](3,3,3-trifluoropropyl) malononitrile]: in the experiment on Culex pipiens pallens (setting [1]), the pest or weed control at 3.5 ppm was no less than 95%.

Regarding `CCOC(=O)c1cn(CC(C#N)(C#N)CCC(F)(F)F)nc1C(F)(F)F` [compound of the present invention (25), {[4-ethoxycarbonyl-3-(trifluoromethyl)-pyrazole-1H-yl]methyl}(3,3,3-trifluoropropyl) malononitrile], the pest or weed control at 3.5 ppm with Culex pipiens pallens (setting [1]) was no less than 95%.

Regarding `N#CC(C#N)(CCC(F)(F)F)Cn1cncn1` [compound of the present invention (27), [(1H-1,2,4-triazole-1-yl)methyl](3,3,3-trifluoropropyl) malononitrile], in the experiment with Blattella germanica (setting [3]), the pest or weed control at 500 ppm was 100%. In the experiment with Culex pipiens pallens (setting [1]), the pest or weed control at 3.5 ppm was no less than 95%.

As for `CCC(C)(C)c1ncn(CC(C#N)(C#N)CCC(F)(F)F)n1` [compound of the present invention (30), {[3-(1,1-dimethylpropyl)-1H-1,2,4-triazole-1-yl]methyl}(3,3,3-trifluoropropyl) malononitrile], the pest or weed control at 500 ppm in the experiment on Musca domestica (setting [2]) was no less than 90%; with Blattella germanica (setting [3]), 100%.

On to `C=CCC(C#N)(C#N)Cn1cnc(C(F)(F)C(F)(F)F)n1` [compound of the present invention (35), allyl {[3-(pentafluoroethyl)-1H-1,2,4-triazole 1-yl]methyl}malononitrile], for which the pest or weed control at 500 ppm in the experiment on Blattella germanica (setting [3]) stood at 100%. The pest or weed control at 3.5 ppm with Culex pipiens pallens (setting [1]) is no less than 95%.

As for `N#Cc1cn(CC(C#N)(C#N)CCC(F)(F)F)c2ccccc12` [compound of the present invention (39), [{3-cyano-1H-indole-1-yl}methyl] (3,3,3-trifluoropropyl) malononitrile], the pest or weed control at 500 ppm in the experiment with Musca domestica (setting [2]) was no less than 90%. In the experiment with Culex pipiens pallens (setting [1]), the pest or weed control at 3.5 ppm is no less than 95%.

For `N#CC(C#N)(CCC(F)(F)F)Cn1cc(C(=O)C(F)(F)F)c2ccccc21` [compound of the present invention (41), [{3-(trifluoroacetyl)-1H-indole-1-yl}methyl](3,3,3-trifluoropropyl) malononitrile], the pest or weed control at 3.5 ppm with Culex pipiens pallens (Culex pipiens) was no less than 95%.

As to `N#CC(C#N)(CCC(F)(F)F)Cn1cc(SC(F)(Cl)Cl)cn1` [compound of the present invention (43), [(4-{(dichlorofluoromethyl)thio}-1H-pyrazole-1-yl)methyl](3,3,3-trifluoropropyl)malononitrile], in the experiment on Blattella germanica (setting [3]), the pest or weed control at 500 ppm is 100%.

Turning to `N#CC(C#N)(CCC(F)(F)F)Cn1cc(SC(F)(Cl)Cl)c2ccccc21` [compound of the present invention (44), [(3-{[dichlorofluoromethyl]thio}-1H-indole-1-yl)methyl](3,3,3-trifluoropropyl) malononitrile], the pest or weed control at 3.5 ppm in the experiment on Culex pipiens pallens (setting [1]) was no less than 95%.

`N#Cc1cn(CC(C#N)(C#N)CCC(F)(F)F)cc1C(F)(F)F` [compound of the present invention (46), [(3-cyano-4-trifluoromethyl-1H-pyrole-1-yl)methyl](3,3,3-trifluoropropyl) malononitrile]: the pest or weed control at 3.5 ppm with Culex pipiens pallens (setting [1]) is no less than 95%.

As for `CCOC(=O)c1cn(CC(C#N)(C#N)CCC(F)(F)F)cc1C(F)(F)F` [compound of the present invention (47), [(3-ethoxycarbonyl-4-trifluoromethyl-1H-pyrole-1-yl)methyl](3,3,3-trifluoropropyl)malononitrile], the pest or weed control at 3.5 ppm in the experiment on Culex pipiens pallens (setting [1]) was no less than 95%.

As for `N#Cc1ccn(CC(C#N)(C#N)CCC(F)(F)F)c1` [compound of the present invention (48), [(3-cyano-1H-pyrole-1-yl)methyl] (3,3,3-trifluoropropyl) malononitrile], in the experiment with Culex pipiens pallens (setting [1]), the pest or weed control at 3.5 ppm was no less than 95%.
